{"source": "patent EP0326963B1", "about": "“Deodorant as well as deodorizing food, drink and seasoning” (priority 1988, dated 1989)", "key": {"urogenous smell [1]": {"system": "urogenous smell", "test": "Test Example 5: smell of fresh urine of rabbits, potassium phytate in drinking water", "assay_type": "in vivo", "parameters": "key to Deodorizing Effects 1st day / Deodorizing Effects 3rd day / Deodorizing Effects 5th day / Deodorizing Effects 7th day / Deodorizing Effects 14th day: 1: No change; 2: Weaken; 3: Almost no recognizable smell", "experimental": "An aqueous solution containing potassium phytate in an amount of 20mg/ml was added to 170 ml of drinking water for each experimented animal (rabbits, 2 heads) in amount of 2ml. The resulting drinking water was given for each day over 14 days, so that it can be […] by the animal in free together with their food. After 1, 3, 5, 7 and 14 days from the first giving of the drinking water containing the compound, fresh urine was taken with use of a catheter to immediately check a degree of its smell by 3 judges. […] While, there was no change in a fragrant smell which may be considered due to plant terpenes contained in their food."}, "urogenous smell [2]": {"system": "urogenous smell", "test": "Test Example 3: smell of fresh urine of cats, potassium phytate/lactose powder in food", "assay_type": "in vivo, crossbred mature cats", "parameters": "key to Deodorizing Effects 1st day / Deodorizing Effects 3rd day / Deodorizing Effects 5th day / Deodorizing Effects 7th day: 1: No change; 2: Weaken; 3: Almost no recognizable smell", "experimental": "A powder composition was prepared by mixing potassium phytate and lactose, which composition containing the phytate in an amount of 24mg/g. The composition was mixed with a powdered food which was […] by crossbred mature cats (8 heads, body weight of about 5kg) in an amount of 1g/head/day based on the composition over 7 days. After 1, 3, 5 and 7 days from the first administration, fresh urine was taken with use of a catheter to immediately check a degree of its smell by 3 judges. […]"}, "ozostomy": {"system": "ozostomy", "assay_type": "in vivo, normal persons", "details": "3 judges", "experimental": "Following substances generating unpleasant smell were intaken by each panel (3 normal persons) who immediately drinks an aqueous solution of potassium phytinate (105mg/10ml). On contrary thereto, each control panel drinks were drinking water in same amount.\nAn inspection of ozostmy was carried out from time to time at intervals by 3 judges (to be judged as positive, when 2 or 3 judges feel the unpleasant smell) and by self notification of the experimented person.\nUnpleasant smell generating materials : • a) Garlic (10g as grated one), • b) Leek (50g as cooked one), • c) Scallion (50g as pickled one), • d) Onion (100g as grated one), • e) Welsh onion (100g as cooked one), • f) Tobacco (carrying out a functional test by the third party on smokers who smoke more than 50 cigarette per diem), and • g) Alcohol (drink 300ml of Japanese sake, when the stomach of experimented person emties)."}, "urogenous smell [3]": {"system": "urogenous smell", "test": "Test Example 6: urogenous smell of hamsters, potassium phytate in drinking water", "assay_type": "in vivo", "details": "hamsters (2 pairs); 10mg/kg in drinking water over 14 days; checked on finely cut newspaper used as litter", "experimental": "An aqueous solution containing potassium phytate in an amount of 20mg/ml was prepared. The solution was added to drinking water for each experimented animal (hamsters, 2 pairs) over 14 days, so that each animal can intake the compound in an amount of 10mg/kg."}, "urogenous smell [4]": {"system": "urogenous smell", "test": "Test Example 2: smell of fresh urine of cats, potassium phytate solution 20mg/ml", "assay_type": "in vivo, crossbred mature cats", "parameters": "key to Deodorizing Effects 1st day / Deodorizing Effects 3rd day / Deodorizing Effects 5th day / Deodorizing Effects 7th day: 1: No change; 2: Weaken; 3: Almost no recognizable smell", "details": "20mg/ml solution", "experimental": "A solution containing potassium phytate in an amount of 20mg/ml (Example 1) was administered to crossbred mature cats (8 heads, body weight of about 5kg) in an amount of 3ml/head/day over 7 days. After 1, 3, 5 and 7 days from the first administration, fresh urine was taken with use of a catheter to immediately check a degree of its smell by 3 judges. […]"}, "urogenous smell [5]": {"system": "urogenous smell", "test": "Test Example 10: urogenous smell of rats fed high protein cat food", "assay_type": "in vivo", "parameters": "key: Judged by 4 stage judgement of ++, +, ± and −; Judged by 4 stage judgement of ++, +, ± and −; Judged by 4 stage judgement of ++, +, ± and −; Judged by 4 stage judgement of ++, +, ± and −", "experimental": "As experimental animal, rats were employed, they had been fed with a cat food of high protein content (30%) to excrete urine with a smell inherent in that of cats. To test group I, potassium phytate was administrated in abdominal cavity at a dose of 3mg/day over 5 days and while, to test group II, the compound was given in the similar to the above but at a dose of 30mg/day. To control group, no compound was given."}, "[6]": {"details": "rabbits, potassium phytate in drinking water"}, "[7]": {"details": "cats, powder 24mg/g, 1g/head/day in food"}, "[8]": {"details": "test group I: 3mg/day in abdominal cavity over 5 days"}, "[9]": {"details": "test group II: 30mg/day in abdominal cavity over 5 days"}}, "note": "Values joined by “and” are separate entries in the source; they are usually repeats but may differ in a detail not shown here. Equal values may be shown once.", "data": [{"smiles": "O=P(O)(O)O[C@H]1[C@H](OP(=O)(O)O)[C@@H](OP(=O)(O)O)[C@H](OP(=O)(O)O)[C@@H](OP(=O)(O)O)[C@H]1OP(=O)(O)O", "note": "[potassium phytate, Potassium phytate]", "values": [{"measurement": "Deodorizing Effects 1st day", "setting": "urogenous smell [1]; individual rabbit, 2ml of 20mg/ml solution in 170 ml drinking water per day over 14 days, 1st day", "value": 1}, {"measurement": "Deodorizing Effects 3rd day", "setting": "urogenous smell [1]; individual rabbit, 2ml of 20mg/ml solution in 170 ml drinking water per day, 3rd day", "value": "2 (3×) and 1"}, {"measurement": "Deodorizing Effects 5th day", "setting": "urogenous smell [1]; individual rabbit, 2ml of 20mg/ml solution in 170 ml drinking water per day, 5th day", "value": "3 (3×) and 2"}, {"measurement": "Deodorizing Effects 7th day", "setting": "urogenous smell [1]; individual rabbit, 2ml of 20mg/ml solution in 170 ml drinking water per day, 7th day", "value": 3}, {"measurement": "Deodorizing Effects 14th day", "setting": "urogenous smell [1]; individual rabbit, 2ml of 20mg/ml solution in 170 ml drinking water per day, 14th day", "value": 3}, {"measurement": "Efficiency 1st day", "setting": "urogenous smell [1]; rabbits, 2ml of 20mg/ml solution in drinking water per day, 1st day", "value": "0/4"}, {"measurement": "Efficiency 3rd day", "setting": "urogenous smell [1]; rabbits, 2ml of 20mg/ml solution in drinking water per day, 3rd day", "value": "0/4"}, {"measurement": "Efficiency 5th day", "setting": "urogenous smell [1]; rabbits, 2ml of 20mg/ml solution in drinking water per day, 5th day", "value": "3/4"}, {"measurement": "Efficiency 7th day", "setting": "urogenous smell [1]; rabbits, 2ml of 20mg/ml solution in drinking water per day, 7th day", "value": "4/4"}, {"measurement": "Efficiency 14th day", "setting": "urogenous smell [1]; rabbits, 2ml of 20mg/ml solution in drinking water per day, 14th day", "value": "4/4"}, {"measurement": "almost no unpleasant urogenous smell was notified", "setting": "urogenous smell [1]; [6]", "value": "on fifth day"}, {"measurement": "deodorizing effect of the compound appears", "setting": "urogenous smell [1]; [6]", "value": "by third day"}, {"measurement": "fragrant smell (considered due to plant terpenes contained in their food)", "setting": "urogenous smell [1]; [6]", "value": "no change"}, {"measurement": "Efficiency 1st day", "setting": "urogenous smell [2]; cats (8 heads), powder 24mg/g, 1g/head/day in food, 1st day", "value": "0/8"}, {"measurement": "Efficiency 3rd day", "setting": "urogenous smell [2]; cats (8 heads), powder 24mg/g, 1g/head/day in food, 3rd day", "value": "2/8"}, {"measurement": "Efficiency 5th day", "setting": "urogenous smell [2]; cats (8 heads), powder 24mg/g, 1g/head/day in food, 5th day", "value": "8/8"}, {"measurement": "Efficiency 7th day", "setting": "urogenous smell [2]; cats (8 heads), powder 24mg/g, 1g/head/day in food, 7th day", "value": "8/8"}, {"measurement": "deodorizing effect of the compound appears", "setting": "urogenous smell [2]; [7]", "value": "by third day"}, {"measurement": "urogenous smell disappeared", "setting": "urogenous smell [2]; [7]", "value": "on fifth day"}, {"measurement": "Deodorizing Effects 1st day", "setting": "urogenous smell [2]; individual cat, powder with lactose 24mg/g, 1g/head/day in food over 7 days, 1st day", "value": "1 (4×) and 2 (4×)"}, {"measurement": "Deodorizing Effects 3rd day", "setting": "urogenous smell [2]; individual cat, powder with lactose 24mg/g, 1g/head/day in food, 3rd day", "value": "3 (2×) and 2 (6×)"}, {"measurement": "Deodorizing Effects 5th day", "setting": "urogenous smell [2]; individual cat, powder with lactose 24mg/g, 1g/head/day in food, 5th day", "value": 3}, {"measurement": "Deodorizing Effects 7th day", "setting": "urogenous smell [2]; individual cat, powder with lactose 24mg/g, 1g/head/day in food, 7th day", "value": 3}, {"measurement": "ozostomy on the test group, first inspection", "setting": "ozostomy; aqueous solution 105mg/10ml drunk immediately after intake of smell generating material, 1 hour from the intake", "value": "not so strong"}, {"measurement": "ozostomy on the test group, second inspection", "setting": "ozostomy; aqueous solution 105mg/10ml, 3 hours from the intake", "value": "apparently decreases"}, {"measurement": "intensity of the urogenous smell", "setting": "urogenous smell [3]", "value": "decreases on several days from the first administration"}, {"measurement": "Efficiency 1st day", "setting": "urogenous smell [4]; cats (8 heads), 3ml/head/day, 1st day", "value": "0/8"}, {"measurement": "Efficiency 3rd day", "setting": "urogenous smell [4]; cats (8 heads), 3ml/head/day, 3rd day", "value": "0/8"}, {"measurement": "Efficiency 5th day", "setting": "urogenous smell [4]; cats (8 heads), 3ml/head/day, 5th day", "value": "8/8"}, {"measurement": "Efficiency 7th day", "setting": "urogenous smell [4]; cats (8 heads), 3ml/head/day, 7th day", "value": "8/8"}, {"measurement": "deodorizing effect of the compound appears", "setting": "urogenous smell [4]; cats, 3ml/head/day", "value": "by third day"}, {"measurement": "urogenous smell disappeared", "setting": "urogenous smell [4]; cats, 3ml/head/day", "value": "on fifth day"}, {"measurement": "Deodorizing Effects 1st day", "setting": "urogenous smell [4]; individual cat, 3ml/head/day over 7 days, 1st day", "value": "1 (6×) and 2 (2×)"}, {"measurement": "Deodorizing Effects 3rd day", "setting": "urogenous smell [4]; individual cat, 3ml/head/day over 7 days, 3rd day", "value": 2}, {"measurement": "Deodorizing Effects 5th day", "setting": "urogenous smell [4]; individual cat, 3ml/head/day over 7 days, 5th day", "value": 3}, {"measurement": "Deodorizing Effects 7th day", "setting": "urogenous smell [4]; individual cat, 3ml/head/day over 7 days, 7th day", "value": 3}, {"measurement": "Urogenous Smell 3rd day", "setting": "urogenous smell [5]; [8]", "value": "+"}, {"measurement": "Urogenous Smell 6th day", "setting": "urogenous smell [5]; [8]", "value": "±"}, {"measurement": "Urogenous Smell 9th day", "setting": "urogenous smell [5]; [8]", "value": "+"}, {"measurement": "Urogenous Smell 3rd day", "setting": "urogenous smell [5]; [9]", "value": "±"}, {"measurement": "Urogenous Smell 6th day", "setting": "urogenous smell [5]; [9]", "value": "±"}, {"measurement": "Urogenous Smell 9th day", "setting": "urogenous smell [5]; [9]", "value": "+"}]}]}
